The source of these data is US8076489B2, “5-hydroxy-benzothiazole derivatives having beta-2-adrenoreceptor agonist activity” (Novartis AG, priority 2004, dated 2011).

Assay [1] concerns guinea pig tracheal strip. As to the kind of experiment: guinea-pig tracheal strip in vitro assay (duration of action). In kind it is cell-based. An excerpt:
(§1) Compounds of formulae IX are known or may be prepared using procedures that are known or are analogous to those hereinafter described in the Examples. Compounds of formula I in free, salt or solvate form are useful as pharmaceuticals. Accordingly the invention also provides a compound of formula I in free, salt or solvate form for use as a pharmaceutical. The compounds of formula I in free, salt or solvate form, hereinafter referred to alternatively as “agents of the invention”, have good β2-adreno-receptor agonist activity. The β2 agonist activity, onset of action and duration of action of the agents of the invention may be tested using the guinea pig tracheal strip in vitro assay according to the procedure of R. A. Coleman and A. T. Nials, J. Pharmacol. Methods 1989, 21, 71. The binding potency and selectivity for the β2-adrenoreceptor relative to the β1-adrenoreceptor can be measured by a classical filtration binding assay according to the procedure of Current Protocols in Pharmacology (S. J. Enna (editor-in-chief) et al, John Wiley & Son, Inc, 1998), or by cAMP determination in cells expressing β2- or β1-adreno-ceptor, according to the procedure of B. January et al, Brit. J. Pharmacol. 1998, 123, 701.

The next assay addresses β2-adrenoreceptor (Homo sapiens, UniProt P07550). The assay is described as follows: classical filtration binding assay, β2 binding potency.
Description: as §1
Many of the compounds have binding selectivities for the β2-adrenoreceptor relative to the β1-adrenoreceptor from 1.5 to 500.

[2] abbreviates: classical filtration binding assay, read-out: β2 binding potency, Ki.

Read-outs that look alike come from different tables or passages of the source.

Chain of β2-adrenoreceptor (P07550 whole entry, species assumed): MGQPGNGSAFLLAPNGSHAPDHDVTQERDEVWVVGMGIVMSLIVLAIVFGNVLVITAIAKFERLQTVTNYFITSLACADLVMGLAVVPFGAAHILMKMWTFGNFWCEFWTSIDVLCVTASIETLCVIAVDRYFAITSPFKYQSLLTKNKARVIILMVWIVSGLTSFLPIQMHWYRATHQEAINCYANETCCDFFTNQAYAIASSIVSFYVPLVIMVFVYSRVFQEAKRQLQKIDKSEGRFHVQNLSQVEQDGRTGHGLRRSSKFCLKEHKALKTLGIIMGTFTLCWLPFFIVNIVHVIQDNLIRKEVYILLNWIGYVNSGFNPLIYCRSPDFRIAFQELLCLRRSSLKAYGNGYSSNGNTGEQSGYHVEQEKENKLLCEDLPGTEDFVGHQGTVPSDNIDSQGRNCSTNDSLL

Turning to `CC(C)(Cc1ccccc1)NC[C@H](O)c1cc(O)cc2[nH]c(=O)sc12` [Example 1, (R)-7-[2-(1,1-Dimethyl-2-phenyl-ethylamino)-1-hydroxy-ethyl]-5-hydroxy-3H-benzothiazol-2-one], the “T(50%) time for inhibition of contraction to decay to 50% of its maximum value” in assay [1] (100 nM concentration) was greater than 672 min. The term Ki denotes a dissociation constant, usually derived from enzyme kinetics or from competition with a known ligand. Turning to `CC(NCC(O)c1cc(O)cc2[nH]c(=O)sc12)C1CCCCC1` (stereo not shown) [Example 2], the inhibition constant Ki on β2-adrenoreceptor (setting [2]) came out at 61 nM. Turning to `CCCCOc1ccc(CC(C)(C)NCC(O)c2cc(O)cc3[nH]c(=O)sc23)cc1` (stereo not shown) [Example 4], on β2-adrenoreceptor, the affinity, expressed as Ki, was 27 nM.

For `CC(CCc1ccccc1)NCC(O)c1cc(O)cc2[nH]c(=O)sc12` (stereo not shown) [Example 9], the Ki at β2-adrenoreceptor (setting [2]) was determined as 16 nM. `O=c1[nH]c2cc(O)cc(C(O)CNC3CCCC3C3CCCC3)c2s1` (stereo not shown) [Example 14]: the Ki on β2-adrenoreceptor (setting [2]) was 56 nM. Same read-out and setting: as for `O=c1[nH]c2cc(O)cc(C(O)CNC3CCCC3OCc3ccccc3)c2s1` (stereo not shown) [Example 17], the figure is 2 nM. As for `CN(C)c1ccc(CC(C)(C)NC[C@@H](O)c2cc(O)cc3[nH]c(=O)sc23)cc1` [Example 18, (S)-7-{2-[2-(4-Dimethylamino-phenyl)-1,1-dimethyl-ethylamino]-1-hydroxy-ethyl}-5-hydroxy-3H-benzothiazol-2-one], the “T(50%) time for inhibition of contraction to decay to 50% of its maximum value” in assay [1] (10 nM concentration) came out at 595 min.
